{"source": "patent US20200178534A1", "about": "“INDUCTION OF FLORAL DEVELOPMENT IN PLANTS” (priority 2016, published 2020)", "key": {"[1]": {"test_system": "Arabidopsis thaliana, ecotype Columbia (Col-0) and attps7 knockout mutants", "assay": "Height of the flowering inflorescence at 26 DAS after spraying T6P signalling precursor", "format": "in vivo", "settings": "versus water control", "description": "Right hand bars in each panel represent plants treated with 1 mM oNPE. Left hand bars in each panel represent plants treated with water (controls). […] This reflects the advancement of flowering by oNPE.\n(§1) Seeds of Arabidopsis thaliana, ecotype Columbia (Col-0) and attps7 knockout mutants were surface-sterilized with 70% of ethanol for 2 min and 75% household bleach for 7 min, and grown on nutrient agar media (0.5×Murashige and Skoog plus Gamborg's vitamins (Sigma). 0.5% Sucrose and 0.7% Agar) in Petri plates. Seeds on the Petri plates were placed in a growth chamber (22° C., 150 μmol m^−2 s^−1, 16-h day). Seven days after plating, seedlings were transferred to pots of soil containing Rothamsted standard compost mix and full nutrition (one seedling per pot). Forty plants per A. thaliana type (n=40 Col-0, n=40 TPS7_3, n=40 TPS7_4.15) were grown at 22CC, 250 μmol m^−2 s^−1 irradiance, 16-h day. Eight days after sowing (DAS) plants were sprayed with 0.5 ml 1 mM oNPE-T6P (ortho-nitrphenyl)ethyl trehalose 6-phosphate dissolved in distilled water with the addition of 0.1% of Tween20 during the middle of the mid-photoperiod. Twenty-four hours after spraying (9 DAS), plants sprayed with 1 mM oNPE-T6P were exposed to 600 μmol m^−2 s^−1 irradiance for 1 h to release T6P from oNPE-T6P. Spraying was repeated at 12 and 16 DAS.\nHeight of the flowering inflorescence was then measured at 26 DAS. […]"}, "[2]": {"test_system": "Arabidopsis thaliana, ecotype Columbia (Col-0) and attps7 knockout mutants", "assay": "Appearance of flower buds / flowering time after spraying T6P signalling precursor", "format": "in vivo", "set-up": "key to flower bud had appeared (individual plant N): X: shown as crosses in highlighted boxes", "settings": "for flower bud had appeared (individual plant N): 1 mM spray, day 5 after spraying", "description": "In both cases it is possible to advance the development of the flowering inflorescence by several centimetres and advance flowering time by up to a week.\nas §1\nFirst, the appearance of the flower bud was quicker in plants sprayed with oNPE-T6P than with water."}}}
{"smiles": "CC(OP(=O)(OC[C@H]1O[C@H](O[C@H]2O[C@H](CO)[C@@H](O)[C@H](O)[C@H]2O)[C@H](O)[C@@H](O)[C@@H]1O)OC(C)c1ccccc1[N+](=O)[O-])c1ccccc1[N+](=O)[O-]", "note": "(stereo partly drawn) [oNPE-T6P, 6-O-bis[1-(2-nitrophenyl)-ethoxyphosphoryl]-D-trehalose]", "values": [{"measurement": "height of the flowering inflorescence", "setting": "[1]; Col-0, 1 mM", "value": "taller inflorescences"}, {"measurement": "height of the flowering inflorescence", "setting": "[1]; tps7, 1 mM", "value": "taller inflorescences"}, {"measurement": "flower bud had appeared (individual plant N)", "setting": "[2]; Col-0", "value": "X"}, {"measurement": "flower bud had appeared (individual plant N)", "setting": "[2]; TPS7_3 mutant", "value": "X"}, {"measurement": "flower bud had appeared (individual plant N)", "setting": "[2]; TPS7_4.15 mutant", "value": "X"}, {"measurement": "appearance of the flower bud compared with water", "setting": "[2]; plants sprayed with 1 mM, versus water", "value": "quicker"}]}
